In ChEMBL document CHEMBL3885861, “Open TG-GATES”:

Species on record: Rattus norvegicus
Experiment: Open TG-GATES - Regimen: Single
Assay type: toxicity, organism-based, Sprague-Dawley
Parameters: regimen Single, gender Male, age 6 weeks
Conditions: in vivo, po, route gavage; for gamma-GTP / ALP / AST / BUN / CRE / Ca / DBIL / GLC / IP / K / LDH / Na / PL / RALB / TBIL / TC / TG / TP / ALT: tissue Plasma; for APTT / Bas / Eos / Fbg / Hb / Ht / MCH / MCHC / MCV / Mono / Neu / PT / Plat / RBC / Ret / WBC / Lym: tissue Blood; for KIDNEY_L / KIDNEY_R / KIDNEY_TOTAL: tissue Kidney; for LIVER: tissue Liver
[1] = 300 mg/kg, 3 h, dose level Middle
[2] = 300 mg/kg, 6 h, dose level Middle
[3] = 300 mg/kg, 9 h, dose level Middle
[4] = 300 mg/kg, 24 h, dose level Middle
[5] = 1000 mg/kg, 3 h, dose level High
[6] = 1000 mg/kg, 6 h, dose level High
[7] = 1000 mg/kg, 9 h, dose level High
[8] = 1000 mg/kg, 24 h, dose level High

O=C(O)c1cn(C2CC2)c2cc(N3CCNCC3)c(F)cc2c1=O [CIPROFLOXACIN]
gamma-GTP (100 mg/kg, 24 h, dose level Low): 1.4 IU/L
TERMINAL_BW [1]: 184.9 g
APTT [1]: 16.7 s
Bas [1]: 0%
Eos [1]: 0.4%
Fbg [1]: 204.6 mg/dL
Hb [1]: 13.2 g/dL
Ht [1]: 39.5%
MCH [1]: 22.8 pg
MCHC [1]: 33.4%
MCV [1]: 68.2 fL
Mono [1]: 6%
Neu [1]: 14.2%
PT [1]: 12.4 s
Plat [1]: 99.2 x10_4/uL
RBC [1]: 579 x10_4/ul
Ret [1]: 11.6%
WBC [1]: 102.6 x10_2/uL
KIDNEY_L [1]: 0.8 g
KIDNEY_R [1]: 0.9 g
KIDNEY_TOTAL [1]: 1.7 g
LIVER [1]: 9 g
ALP [1]: 905.6 IU/L
AST [1]: 68.2 IU/L
BUN [1]: 11.6 mg/dL
CRE [1]: 0.5 mg/dL
Ca [1]: 11 mg/dL
DBIL [1]: 0.006 mg/dL
GLC [1]: 183.6 mg/dL
IP [1]: 9.9 mg/dL
K [1]: 4.7 meq/L
LDH [1]: 78.6 IU/L
Na [1]: 138.8 meq/L
PL [1]: 145.6 mg/dL
RALB [1]: 3.9 g/dL
TBIL [1]: 0.4 mg/dL
TC [1]: 84 mg/dL
TG [1]: 43.6 mg/dL
TP [1]: 5.5 g/dL
gamma-GTP [1]: 1 IU/L
TERMINAL_BW [2]: 179.8 g
Bas [2]: 0%
Eos [2]: 1%
Fbg [2]: 208.2 mg/dL
Hb [2]: 12.8 g/dL
MCH [2]: 22.1 pg
MCHC [2]: 33%
MCV [2]: 67.1 fL
Mono [2]: 8%
PT [2]: 12.4 s
Plat [2]: 101.5 x10_4/uL
RBC [2]: 579.8 x10_4/ul
Ret [2]: 10.5%
WBC [2]: 103.6 x10_2/uL
KIDNEY_L [2]: 0.9 g
KIDNEY_R [2]: 0.8 g
KIDNEY_TOTAL [2]: 1.7 g
LIVER [2]: 8.1 g
ALP [2]: 804.2 IU/L
ALT [2]: 35.2 IU/L
BUN [2]: 11 mg/dL
CRE [2]: 0.5 mg/dL
Ca [2]: 11.6 mg/dL
DBIL [2]: 0.038 mg/dL
GLC [2]: 175.2 mg/dL
IP [2]: 10.3 mg/dL
K [2]: 5.1 meq/L
LDH [2]: 82.2 IU/L
Na [2]: 138 meq/L
PL [2]: 131.8 mg/dL
RALB [2]: 3.8 g/dL
TBIL [2]: 0.4 mg/dL
TC [2]: 82.2 mg/dL
TG [2]: 36.2 mg/dL
TP [2]: 5.6 g/dL
gamma-GTP [2]: 1.4 IU/L
TERMINAL_BW [3]: 176.2 g
APTT [3]: 16.9 s
Bas [3]: 0%
Eos [3]: 0.8%
Fbg [3]: 220.4 mg/dL
Hb [3]: 13.2 g/dL
Ht [3]: 39.7%
Lym [3]: 81%
MCV [3]: 67.5 fL
Mono [3]: 5.2%
Neu [3]: 13.4%
PT [3]: 11.5 s
Plat [3]: 101.9 x10_4/uL
RBC [3]: 588.6 x10_4/ul
Ret [3]: 9.9%
WBC [3]: 105.6 x10_2/uL
KIDNEY_L [3]: 0.8 g
KIDNEY_R [3]: 0.8 g
KIDNEY_TOTAL [3]: 1.7 g
LIVER [3]: 7.2 g
ALP [3]: 927.2 IU/L
ALT [3]: 33 IU/L
AST [3]: 67.4 IU/L
BUN [3]: 10.2 mg/dL
CRE [3]: 0.5 mg/dL
DBIL [3]: 0.082 mg/dL
GLC [3]: 191.4 mg/dL
IP [3]: 10.9 mg/dL
K [3]: 5 meq/L
LDH [3]: 79.8 IU/L
Na [3]: 139.2 meq/L
PL [3]: 120.4 mg/dL
RALB [3]: 3.9 g/dL
TBIL [3]: 0.3 mg/dL
TC [3]: 72.8 mg/dL
TP [3]: 5.6 g/dL
gamma-GTP [3]: 1.4 IU/L
TERMINAL_BW [4]: 194.3 g
Bas [4]: 0%
Eos [4]: 1%
Fbg [4]: 214.4 mg/dL
Hb [4]: 12.9 g/dL
Lym [4]: 77.2%
MCH [4]: 21.4 pg
MCHC [4]: 33.1%
MCV [4]: 64.8 fL
Mono [4]: 7%
PT [4]: 12.4 s
Plat [4]: 106.2 x10_4/uL
RBC [4]: 600.4 x10_4/ul
Ret [4]: 9.4%
WBC [4]: 96.1 x10_2/uL
KIDNEY_L [4]: 0.9 g
KIDNEY_R [4]: 0.9 g
KIDNEY_TOTAL [4]: 1.8 g
LIVER [4]: 8.5 g
ALP [4]: 843 IU/L
ALT [4]: 37.8 IU/L
AST [4]: 71.8 IU/L
BUN [4]: 17.6 mg/dL
CRE [4]: 0.5 mg/dL
Ca [4]: 11.3 mg/dL
DBIL [4]: 0.058 mg/dL
GLC [4]: 193 mg/dL
IP [4]: 9.2 mg/dL
K [4]: 4.7 meq/L
LDH [4]: 93.4 IU/L
Na [4]: 140.2 meq/L
PL [4]: 153.2 mg/dL
RALB [4]: 3.9 g/dL
TBIL [4]: 0.3 mg/dL
TC [4]: 95.4 mg/dL
TG [4]: 49 mg/dL
TP [4]: 5.9 g/dL
gamma-GTP [4]: 1.8 IU/L
TERMINAL_BW [5]: 182 g
APTT [5]: 17 s
Bas [5]: 0%
Eos [5]: 0.4%
Fbg [5]: 215.6 mg/dL
Hb [5]: 12.9 g/dL
Lym [5]: 80.4%
MCH [5]: 21.7 pg
MCHC [5]: 33.1%
MCV [5]: 65.5 fL
Mono [5]: 6.6%
Neu [5]: 12.6%
PT [5]: 12.6 s
Plat [5]: 101.8 x10_4/uL
RBC [5]: 592.8 x10_4/ul
Ret [5]: 11.2%
WBC [5]: 101.3 x10_2/uL
KIDNEY_L [5]: 0.8 g
KIDNEY_R [5]: 0.8 g
KIDNEY_TOTAL [5]: 1.7 g
LIVER [5]: 8.6 g
ALP [5]: 791 IU/L
ALT [5]: 36.8 IU/L
CRE [5]: 0.5 mg/dL
DBIL [5]: 0.022 mg/dL
GLC [5]: 191.2 mg/dL
IP [5]: 10.3 mg/dL
K [5]: 4.7 meq/L
LDH [5]: 132.2 IU/L
Na [5]: 139 meq/L
PL [5]: 141 mg/dL
RALB [5]: 3.8 g/dL
TBIL [5]: 0.3 mg/dL
TC [5]: 81.2 mg/dL
TG [5]: 47 mg/dL
TP [5]: 5.6 g/dL
gamma-GTP [5]: 1.4 IU/L
TERMINAL_BW [6]: 179.7 g
Bas [6]: 0%
Eos [6]: 0.8%
Fbg [6]: 210.4 mg/dL
Hb [6]: 12.9 g/dL
Ht [6]: 39.1%
Lym [6]: 78.2%
MCHC [6]: 32.9%
MCV [6]: 67.5 fL
Mono [6]: 7.6%
Neu [6]: 13.8%
PT [6]: 12.5 s
Plat [6]: 100.8 x10_4/uL
RBC [6]: 579.8 x10_4/ul
Ret [6]: 10%
WBC [6]: 97.6 x10_2/uL
KIDNEY_L [6]: 0.8 g
KIDNEY_R [6]: 0.8 g
KIDNEY_TOTAL [6]: 1.7 g
LIVER [6]: 7.9 g
ALP [6]: 904.2 IU/L
AST [6]: 69.4 IU/L
BUN [6]: 10 mg/dL
CRE [6]: 0.5 mg/dL
Ca [6]: 11.4 mg/dL
DBIL [6]: 0.052 mg/dL
GLC [6]: 185.8 mg/dL
IP [6]: 10.8 mg/dL
K [6]: 5.3 meq/L
LDH [6]: 140.4 IU/L
Na [6]: 138 meq/L
PL [6]: 137.2 mg/dL
RALB [6]: 3.7 g/dL
TBIL [6]: 0.3 mg/dL
TC [6]: 79.8 mg/dL
TP [6]: 5.5 g/dL
gamma-GTP [6]: 1 IU/L
TERMINAL_BW [7]: 176.2 g
APTT [7]: 16.9 s
Bas [7]: 0%
Eos [7]: 0.8%
Fbg [7]: 223 mg/dL
Hb [7]: 13.2 g/dL
Ht [7]: 39.9%
Lym [7]: 83.6%
MCH [7]: 22 pg
MCHC [7]: 33%
MCV [7]: 66.5 fL
Mono [7]: 5.8%
Neu [7]: 10%
PT [7]: 11.4 s
Plat [7]: 104.6 x10_4/uL
RBC [7]: 601 x10_4/ul
WBC [7]: 94.6 x10_2/uL
KIDNEY_L [7]: 0.8 g
KIDNEY_R [7]: 0.9 g
KIDNEY_TOTAL [7]: 1.7 g
LIVER [7]: 7.3 g
ALP [7]: 763.8 IU/L
AST [7]: 71.4 IU/L
BUN [7]: 11 mg/dL
CRE [7]: 0.5 mg/dL
Ca [7]: 10.8 mg/dL
DBIL [7]: 0.08 mg/dL
GLC [7]: 192.4 mg/dL
IP [7]: 11 mg/dL
K [7]: 5.2 meq/L
LDH [7]: 168.2 IU/L
Na [7]: 139 meq/L
PL [7]: 131.4 mg/dL
RALB [7]: 3.8 g/dL
TBIL [7]: 0.3 mg/dL
TC [7]: 78 mg/dL
TG [7]: 22.2 mg/dL
TP [7]: 5.6 g/dL
gamma-GTP [7]: 1.4 IU/L
TERMINAL_BW [8]: 193.6 g
APTT [8]: 15.4 s
Bas [8]: 0%
Eos [8]: 0.8%
Fbg [8]: 219.4 mg/dL
Hb [8]: 13.5 g/dL
Ht [8]: 40.1%
Lym [8]: 80%
MCHC [8]: 33.6%
Mono [8]: 6.4%
Neu [8]: 12.6%
PT [8]: 12.4 s
Plat [8]: 106.5 x10_4/uL
RBC [8]: 600.2 x10_4/ul
Ret [8]: 9.1%
WBC [8]: 110.9 x10_2/uL
KIDNEY_L [8]: 0.8 g
KIDNEY_R [8]: 0.9 g
KIDNEY_TOTAL [8]: 1.7 g
LIVER [8]: 8.7 g
ALP [8]: 1158.6 IU/L
ALT [8]: 49 IU/L
BUN [8]: 19.2 mg/dL
CRE [8]: 0.5 mg/dL
Ca [8]: 11.3 mg/dL
DBIL [8]: 0.028 mg/dL
GLC [8]: 183.8 mg/dL
IP [8]: 9.9 mg/dL
K [8]: 4.6 meq/L
LDH [8]: 177.2 IU/L
Na [8]: 140 meq/L
PL [8]: 146.4 mg/dL
RALB [8]: 4 g/dL
TBIL [8]: 0.2 mg/dL
TC [8]: 84 mg/dL
TG [8]: 51.2 mg/dL
TP [8]: 6 g/dL
gamma-GTP [8]: 1.2 IU/L
